From patent US20110020279A1 (priority 2010, published 2011)
Entries after “also recorded” stand apart in the source; their conditions may differ.

Experiments:
activated microglia = conditions: cited from earlier work
rabies virus [1] = conditions: cited from earlier work
rabies virus [2] = conditions: cited from earlier work; remark: listed apart in the source
rabies virus [3] = conditions: rat, in vivo; cited from earlier work
[4] = in vivo; cited from earlier work
[5] = mouse, in vivo; cited from earlier work
[6] = human, in vivo
herpes simplex virus = conditions: cited from earlier work
rabies virus [7] = conditions: in vivo; cited from earlier work
[8] = in vivo, iv; cited from earlier work
HIV virus = conditions: cited from earlier work
[9] = test system: vesicular stomatitis virus; conditions: cited from earlier work
rabies virus [10] = conditions: human, in vivo, cited from earlier work
rabies virus [11] = conditions: cited from earlier work; remark: listed apart in the source
poliovirus type 1 = conditions: cited from earlier work
[12] = test system: LPS-activated macrophages; conditions: cited from earlier work
[13] = in vivo; cited from earlier work; remark: listed apart in the source
[14] = in vivo; cited from earlier work; remark: listed apart in the source
[15] = in vivo; cited from earlier work; remark: listed apart in the source
[16] = test system: MCF-7 human breast cancer cells; conditions: cited from earlier work
[17] = in vivo
[18] = design: species or system humans; conditions: human, in vivo

Compound: C[C@]12CC[C@@H]3c4ccc(O)cc4CC[C@H]3[C@@H]1C[C@@H](O)[C@@H]2O [Estriol]
- NO and TNF-alpha production by activated microglia (activated microglia): inhibits

Compound: C[C@]12N[C@H](Cc3ccccc31)c1ccccc12 [MK-801]
- rabies virus infection in primary neuron cultures (rabies virus [1]): inhibited

Compound: Oc1ccc(/C=C/c2cc(O)cc(O)c2)cc1 [Resveratol]
- NO and TNF-alpha production by activated microglia (activated microglia): inhibits

Compound: COc1cc2c(c(OC)c1OC)-c1ccc(OC)c(=O)cc1[C@@H](NC(C)=O)CC2 [colchicine]
- rabies virus transport in neurites (rabies virus [2]): blocked
- day post-infection until which no fluorescent foci could be detected (rabies virus [3]): 3 days

Compound: C[C@]12CCC(=O)C=C1CC[C@@H]1[C@@H]2[C@@H](O)C[C@@]2(C)[C@H]1CC[C@]2(O)C(=O)CO [cortisol]
- release of TNF-alpha from LPS-treated microglial cells (activated microglia): inhibits

Compound: COc1cc(/C=C/C(=O)CC(=O)/C=C/c2ccc(O)c(OC)c2)ccc1O [curcumin]
- mRNA and protein levels of inducible nitric oxide synthase (iNOS) (activated microglia): suppresses

Compound: S [hydrogen sulfide]
- borderline concentration for eye irritation [4]: 10-20 ppm
- concentration at which olfactory nerve is paralyzed after a few inhalations [4]: 100-150 ppm
- concentration causing immediate collapse with loss of breathing [4]: over 1000 ppm
- concentration causing strong CNS stimulation, rapid breathing, loss of breathing [4]: 530-1000 ppm
- concentration leading to eye damage [4]: 50-100 ppm
- concentration leading to pulmonary edema with possibility of death [4]: 320-530 ppm
- concentration with exposure limit of 8 hours per day [4]: Less than 10 ppm
- lethal concentration for 50% of humans (LC50) [4]: 800 ppm
- blood pressure [5]: did not significantly decrease
- health consequences afterwards [5]: no negative health consequences

Compound: CNC1(c2ccccc2Cl)CCCCC1=O (stereo not shown) [ketamine]
- initial cardiovascular effects [6]: tachycardia and elevated blood pressure
- replication of herpes simplex virus (herpes simplex virus): doesn't affect replication
- rabies virus infection/spread in rat brain (rabies virus [7]): restricted viral spread; also recorded: reduced
- treatment of hiccup [8]: effectively
- replication of HIV virus (HIV virus): doesn't affect replication
- replication of vesicular stomatitis virus [9]: doesn't affect replication
- outcome of rabies therapy with ketamine and induced coma (rabies virus [10]): failed to save the patient's life
- ketamine therapy of rabies in experimental studies (rabies virus [11]): poor and disappointing
- replication of poliovirus type 1 (poliovirus type 1): doesn't affect replication
- rabies virus infection in primary neuron cultures (rabies virus [1]): inhibited
- reduction in the levels of rabies virus mRNAs relative to untreated neurons (rabies virus [1]): 5- to 11 fold
- viral nucleoprotein and glycoprotein syntheses (rabies virus [1]): inhibited

Compound: CC(=O)[C@H]1CC[C@H]2[C@@H]3CCC4=CC(=O)CC[C@]4(C)[C@H]3CC[C@]12C [progesterone]
- NO and TNF-alpha production by activated microglia (activated microglia): inhibits

Compound: CC(C)c1cccc(C(C)C)c1O [propofol]
- LPS-induced NO biosynthesis [12]: significantly inhibited
- levels of LPS-enhanced TNF-alpha, IL-1 beta, and IL-6 proteins [12]: significantly reduced
- time to waking when not administered continuously [13]: 5 to 10 min

Compound: NC(=O)c1ncn([C@@H]2O[C@H](CO)[C@@H](O)[C@H]2O)n1 [ribavirin]
- outcome of antiviral therapy, intravenous (rabies virus [10]; iv): unsuccessful
- outcome of therapy, combined intravenous and intrathecal administration (rabies virus [10]; iv): unsuccessful

Compound: CC[C@]1(O)C[C@@H]2CN(CCc3c([nH]c4ccccc34)[C@@](C(=O)OC)(c3cc4c(cc3OC)N(C)[C@H]3[C@@](O)(C(=O)OC)[C@H](OC(C)=O)[C@]5(CC)C=CCN6CC[C@]43[C@@H]65)C2)C1 [vinblastine]
- rabies virus transport in neurites (rabies virus [2]): blocked

Compound: NPH (isophane) insulin
- Effective duration of action [14]: 10 to 16 h
- Maximum duration [14]: 14 to 18 h
- Onset of Action [14]: 2 to 4 h
- Peak Action [14]: 6 to 10 h

Compound: biopterin
- post recovery paresis symptoms [15]: relieved

Compound: cytochalasin
- rabies virus transport in neurites (rabies virus [2]): blocked

Compound: insulin
- increase of the cytotoxic effect of methotrexate by insulin [16]: up to 10,000 fold
- hypoglycemic effects [17]: did not develop the hypoglycemic effects
- memory, attention, functioning, mood [18]: improves memory, attention, and functioning

Compound: insulin aspart
- Effective duration of action [14]: 3 to 4 h
- Maximum duration [14]: 4 to 6 h
- Onset of Action [14]: ¼-½
- Peak Action [14]: ½-1¼

Compound: insulin detemir
- Effective duration of action [14]: 14 h
- Maximum duration [14]: ~20 h
- Onset of Action [14]: 3 to 4 h
- Peak Action [14]: 6 to 8 h

Compound: insulin glargine
- Effective duration of action [14]: 18 to 20 h
- Maximum duration [14]: 20 to 24 h
- Onset of Action [14]: 3 to 4 h
- Peak Action [14]: 8 to 16 h

Compound: insulin glulisine
- Effective duration of action [14]: 3 to 4 h
- Maximum duration [14]: 4 to 6 h
- Onset of Action [14]: ¼-½
- Peak Action [14]: ½-1¼

Compound: insulin lispro [IInsulin lispro]
- Effective duration of action [14]: 3 to 4 h
- Maximum duration [14]: 4 to 6 h
- Onset of Action [14]: ¼-½
- Peak Action [14]: ½-1¼

Compound: interferon-Alfa
- outcome of therapy, combined intravenous and intrathecal administration (rabies virus [10]; iv): unsuccessful

Compound: regular (soluble) insulin
- Effective duration of action [14]: 3 to 6 h
- Maximum duration [14]: 6 to 8 h
- Onset of Action [14]: ½-1
- Peak Action [14]: 2 to 3 h
